According to patent US20260206755A1, “COMPOUNDS AND COMPOSITIONS HAVING KNOCK-DOWN OR BLOOD FEED INHIBITION ACTIVITY AGAINST INSECT PESTS” (priority 2017, published 2026):
Where two headings read alike, the source gives them in different places.

Tested on: Anopheles stephensi
Assay: Anopheles stephensi treated well plate contact test: knockdown and mortality
Type: in vivo
Settings: for mortality at 0.2 ppm / pest or weed control at 0.2 ppm: test compound 0.2 ppm; for mortality at 2 ppm / pest or weed control at 2 ppm: test compound 2 ppm; for mortality at 20 ppm / pest or weed control at 20 ppm: test compound 20 ppm; for mortality at 200 ppm / pest or weed control at 200 ppm: test compound 200 ppm; for pest or weed control at 200 ppm: adult females
Procedure: Examples Anopheles stephensi (Indian Malaria Mosquito)
The individual wells of twelve (12) well tissue culture plates were treated with 200 μl of an ethanol solution containing a test compound of Table 1 or Table 2 at a defined concentration and repeated with also 200 μl of an ethanol solution containing in addition 2 ppm TFNA-AM. Once the deposits were dry, five non-blood fed adult female Anopheles stephensi (between two to five day old) were added to each well, and sustained with a 10% sucrose solution in a cotton wool plug. Assessment of the knockdown after 1 hour, and mortality after 24 and 48 hours was carried out.
In case of multiple tests, the mean value is reported.

[1] = Anopheles stephensi, without TFNA-AM, after 24 hours, read-out: mortality % 24, without TFNA-AM
[2] = Anopheles stephensi, without TFNA-AM, after 48 hours, read-out: mortality % 48, without TFNA-AM
[3] = Anopheles stephensi, without TFNA-AM, knockdown after 1 hour, read-out: Knock Down, without TFNA-AM
[4] = test compound 0.2 ppm plus 2 ppm TFNA-AM, after 24 hours
[5] = test compound 0.2 ppm plus 2 ppm TFNA-AM, after 48 hours
[6] = test compound 0.2 ppm plus 2 ppm TFNA-AM, knockdown after 1 hour
[7] = test compound 2 ppm plus 2 ppm TFNA-AM, after 24 hours
[8] = test compound 2 ppm plus 2 ppm TFNA-AM, after 48 hours
[9] = test compound 2 ppm plus 2 ppm TFNA-AM, knockdown after 1 hour
[10] = test compound 20 ppm plus 2 ppm TFNA-AM, after 24 hours
[11] = test compound 20 ppm plus 2 ppm TFNA-AM, after 48 hours
[12] = test compound 20 ppm plus 2 ppm TFNA-AM, knockdown after 1 hour
[13] = test compound 200 ppm plus 2 ppm TFNA-AM, after 24 hours
[14] = test compound 200 ppm plus 2 ppm TFNA-AM, after 48 hours
[15] = test compound 200 ppm plus 2 ppm TFNA-AM, knockdown after 1 hour

Row | Compound | mortality at 0.2 ppm [1] [%] | mortality at 0.2 ppm [2] [%] | pest or weed control at 0.2 ppm [3] [%] | mortality at 2 ppm [1] [%] | mortality at 2 ppm [2] [%] | pest or weed control at 2 ppm [3] [%] | mortality at 20 ppm [1] [%] | mortality at 20 ppm [2] [%] | pest or weed control at 20 ppm [3] [%] | mortality at 200 ppm [1] [%] | mortality at 200 ppm [2] [%] | pest or weed control at 200 ppm [3] [%] | mortality % 48, with TFNA-AM [5] [%] | Knock Down, with TFNA-AM [6] [%] | mortality % 24, with TFNA-AM [7] [%] | mortality % 48, with TFNA-AM [8] [%] | Knock Down, with TFNA-AM [9] [%] | mortality % 24, with TFNA-AM [10] [%] | mortality % 48, with TFNA-AM [11] [%] | Knock Down, with TFNA-AM [12] [%] | other results
1 | CC(C)N1C(=O)N(c2ccccc2)CS/C1=N\C(C)(C)C [Buprofezin] | 0 | 0 | 0 | 0 | 0 | 0 | 0 | 0 | 0 | 0 | 0 | 0 | 60 | 100 | 100 | 60 | 100 | 100 | 60 | 100 | mortality % 24, with TFNA-AM [4]: 80%; mortality % 24, with TFNA-AM [13]: 80%; mortality % 48, with TFNA-AM [14]: 40%; Knock Down, with TFNA-AM [15]: 100%
2 | CN/C(=N\[N+](=O)[O-])NCc1cnc(Cl)s1 [Clothianidin] | 0 | 0 | 0 | 0 | 0 | 0 | 0 | 20 | 0 | 0 | 20 | 0 | 0 | 100 | 100 | 100 | 100 | 100 | 100 | 100 | mortality % 24, with TFNA-AM [13]: 100%; mortality % 48, with TFNA-AM [14]: 100%; Knock Down, with TFNA-AM [15]: 100%
3 | CO/C=C(/C(=O)OC)c1ccccc1Oc1nc(C(C)(C)C)ns1 [Compound 48] | 0 | 0 | 20 | 100 | 100 | 60 | 100 | 100 | 100 | 100 | 100 | 100 | 100 | 100 | 100 | 100 | 100 | 100 | 100 | 100 | mortality % 24, with TFNA-AM [4]: 80%; mortality % 24, with TFNA-AM [13]: 100%; mortality % 48, with TFNA-AM [14]: 100%; Knock Down, with TFNA-AM [15]: 100%
4 | CO/C=C(/C(=O)OC)c1ccccc1Oc1cc(C(F)(F)F)ccn1 [Compound 49] | 0 | 0 | 0 | 60 | 60 | 0 | 100 | 100 | 50 | 100 | 100 | 50 | 10 | 90 | 90 | 90 | 100 | 100 | 90 | 100 | mortality % 24, with TFNA-AM [4]: 50%; mortality % 24, with TFNA-AM [13]: 100%; mortality % 48, with TFNA-AM [14]: 90%; Knock Down, with TFNA-AM [15]: 100%
5 | CO/C=C(/C(=O)OC)c1ccccc1Oc1ncc(C(F)(F)F)s1 [Compound 54] | 0 | 0 | 0 | 60 | 40 | 0 | 100 | 100 | 100 | 100 | 100 | 100 | 10 | 90 | 100 | 100 | 100 | 100 | 100 | 100 | mortality % 24, with TFNA-AM [13]: 100%; mortality % 48, with TFNA-AM [14]: 100%; Knock Down, with TFNA-AM [15]: 100%
6 | CC1(C)C(C=C(Cl)Cl)C1C(=O)OC(C#N)c1cccc(Oc2ccccc2)c1 (stereo not drawn) [Cypermethrin] | 0 | 40 | 0 | 100 | 100 | 100 | 100 | 100 | 100 |  |  |  | 100 | 100 | 100 | 100 | 100 | 100 | 100 | 100 | mortality at 0.02 ppm (Anopheles stephensi, test compound 0.02 ppm, without TFNA-AM, after 24 hours, read-out: mortality % 24, without TFNA-AM): 0%; mortality at 0.02 ppm (Anopheles stephensi, test compound 0.02 ppm, without TFNA-AM, after 48 hours, read-out: mortality % 48, without TFNA-AM): 20%; pest or weed control at 0.02 ppm (Anopheles stephensi, test compound 0.02 ppm, without TFNA-AM, knockdown after 1 hour, read-out: Knock Down, without TFNA-AM): 0%; mortality % 24, with TFNA-AM (test compound 0.02 ppm plus 2 ppm TFNA-AM, after 24 hours): 80%; Knock Down, with TFNA-AM (test compound 0.02 ppm plus 2 ppm TFNA-AM, knockdown after 1 hour): 100%; mortality % 24, with TFNA-AM [4]: 100%
7 | Nc1nc(N)nc(NC2CC2)n1 [Cyromazine] | 0 | 0 | 0 | 0 | 0 | 0 | 0 | 0 | 0 | 0 | 0 | 0 | 0 | 100 | 20 | 0 | 100 | 60 | 40 | 100 | mortality % 24, with TFNA-AM [4]: 20%; mortality % 24, with TFNA-AM [13]: 80%; mortality % 48, with TFNA-AM [14]: 40%; Knock Down, with TFNA-AM [15]: 100%
8 | CC(C)c1cc(Oc2ccccc2)cc(C(C)C)c1NC(=S)NC(C)(C)C [Diafenthiuron] | 0 | 20 | 60 | 0 | 20 | 100 | 0 | 0 | 100 | 100 | 100 | 100 | 0 | 100 | 100 | 60 | 100 | 100 | 80 | 100 | mortality % 24, with TFNA-AM [4]: 60%; mortality % 24, with TFNA-AM [13]: 100%; mortality % 48, with TFNA-AM [14]: 100%; Knock Down, with TFNA-AM [15]: 100%
